Legend:
[1] = test system: Saos-2 cells over expressing functional BCRP#4; type: cell-based, human
Procedure: (§1) Protocol for Breast Cancer Resistance Protein (BCRP) Assay:
(§2) The anticancer effect of 5(S)-(2′-hydroxyethoxy)-20(S)-camptothecin & 5(R)-(2′-hydroxyethoxy)-20(S)-camptothecin were evaluated versus the racemate 5(RS)-(2′-hydroxyethoxy)-20(S)-camptothecin on Saos-2 cells over expressing functional BCRP#4 and non-functional BCRP mut#10. The human osteosarcoma cell line, Saos-2, was obtained from ATCC (American Type Culture Collection, Cat#HTB-85, Manassas, Va.) and were maintained in DMEM containing 10% fetal bovine serum, 1% penicillin/streptomycin, and 2 mM glutamine. Saos-2 cells were transfected with either BCRP#4 to over express functional BCRP or BCRP#10 to over express non-functional BCRP transporter. The cells were plated in 96-well plates at a density of 1000 cells per each well in a 0.1 ml of medium and allowed to attach overnight. The next morning the medium was gently aspirated and serial dilutions of the compounds to be tested were added. The cells were incubated at 37° C. in a 5% CO2 incubator. […] The amount of the fluorescent dye produced was measured on a Cytofluor® 2300(Millipore, Bedford, Mass.) using an excitation wavelength of 530 nm and emission wavelength of 590 nm. The relative fluorescence units obtained were used to calculate the percentage growth at each concentration in relation to the untreated control values. […]

[2] = test system: Saos-2 cells over expressing non-functional BCRP mut#10; type: cell-based, human
Procedure: as §1, §2

[3] = test system: Human bone marrow mononuclear cells; test: Human bone marrow assay (CFU-GM colony inhibition); type: cell-based; details: relative to 5(R) diastereoisomer
Procedure: Protocol for Human Bone Marrow Assay:
Methocult™ GF (Cat No: H4534, Poietics, Biowhittakar, USA) medium comprising Methycellulose in Iscove's MDM, Fetal bovine serum, Bovine serum albumin, 2-Mercaptoethanol, L-Glutamine, rhStem cell factor, rhGM-CSF and rhIL-3 was used for the assay. Human bone marrow mononuclear cells (Cat No. 2M-125C, Poietics, Biowhittakar, USA) were mixed with Methocult GF and the cell density was adjusted to 3×10^5 cells/ml. From this preparation, 500 μL aliquots were made and 2.5 μL of 20× drug solution or vehicle was added to each aliquot and mixed thoroughly. 100 μL of clonogenic medium was plated into each well and the plates were allowed to gel at 4° C. for 15 minutes. Plates were incubated at 37° C. in a fully humidified atmosphere of 5% CO2 in an incubator for 14 days. CFU-GM colonies were counted under an inverted microscope as aggregates of 50 cells or more. The percentage colony inhibition was calculated using the following formula: 100−[(number of colonies in drug treated wells/Number of colonies in control wells)×100].
The in vitro potency of the two diastereomers against cancer cell lines had been compared with their in vitro toxicity in healthy cells.

NCI-H460 xenografts = test: NCI-H460 xenograft study in nude mice; type: in vivo; details: oral, (d×5)2 schedule, deaths/animals
Procedure: Protocol of Comparison Study of 5(RS)-(2′-hydroxyethoxy)-20(S)-camptothecin and 5(S)-(2′-hydroxyethoxy)-20(S)-camptothecin Against NCl-H460 Xenograft in Nude Mice:
Ti is the mean tumor volume.
Percentage tumor growth inhibition was calculated using the formula: Percentage Tumor growth inhibition=100−% T/C.
The other parameter observed was mortality.

[4] = cited from earlier work

CC[C@@]1(O)C(=O)OCc2c1cc1n(c2=O)[C@@H](OCCO)c2cc3ccccc3nc2-1 [4-(S)-Ethyl-4-hydroxy-12(S)-(2-hydroxyethoxy)-1,12-dihydro-4H-2-oxa-6,12a-diazadibenzo[b,h] fluorene-3,13-dione]
fold more cytotoxic than 5(R)-(2′-hydroxyethoxy)-20(S)-camptothecin [1]: > 2.5 fold | fold more cytotoxic than 5(R)-(2′-hydroxyethoxy)-20(S)-camptothecin [2]: ~6 fold | safety margin (GI90/GI50) compared with that of the 5(R) diastereoisomer [3]: over twice | Mortality (NCI-H460 xenografts; 2 mg/kg): 0/5 | Mortality (NCI-H460 xenografts; 4 mg/kg): 0/5

CC[C@@]1(O)C(=O)OCc2c1cc1n(c2=O)C(OCCO)c2cc3ccccc3nc2-1 (mixture of isomers) [4(S)-Ethyl-4-hydroxy-12(RS)-(2-hydroxyethoxy)-1,12-dihydro-4H-2-oxa-6,12a-diaza-dibenzo[b,h]fluorine-3,13-dione, reference compound]
Mortality (NCI-H460 xenografts; 2 mg/kg): 0/5 | Mortality (NCI-H460 xenografts; 4 mg/kg): 0/5

CC[C@@]1(O)C(=O)OCc2c1cc1n(c2=O)Cc2cc3ccccc3nc2-1 [camptothecin, Camptothecin]
water solubility [4]: poorly water soluble

From patent publication US7601733B2, “5(S)-(2′-hydroxyethoxy)-20(S)-camptothecin and its preparation and use for the treatment of cancer” (priority 2006, dated 2009)
